Results as given in patent US12187721B2, “Protein tyrosine phosphatase inhibitors” (Array BioPharma Inc., priority 2018, dated 2025).
pIC50: −log10 of the molar value. Where two headings read alike, the source gives them in different places.

Target: T1, full-length SHP2 (His6-tagged SHP2(2-527)) (Homo sapiens, UniProt Q06124)
T1 construct: His6-tagged SHP2(2-527); His6; made in house; host or cells: E. coli
Test: SHP2 Enzymatic Assay (fluorescence intensity kinetic assay, DiFMUP hydrolysis)
Type: biochemical
How it was run: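 1 nM His6-SHP2(2-527), activated by 1 μM bis-phosphopeptide, hydrolysed 50 μM DiFMUP in 25 mM HEPES pH 7.4 with 1 mM DTT, 50 mM KCl and 2% DMSO. DiFMU fluorescence (Ex 355/Em 460 nm) was read kinetically for 15 min at ambient temperature.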

[1] = full-length SHP2 with 1 μM activating peptide, 50 μM DiFMUP, single assay or mean of multiple assays, read-out: Biological Example 1 IC50

T1 sequence (Q06124 2-527): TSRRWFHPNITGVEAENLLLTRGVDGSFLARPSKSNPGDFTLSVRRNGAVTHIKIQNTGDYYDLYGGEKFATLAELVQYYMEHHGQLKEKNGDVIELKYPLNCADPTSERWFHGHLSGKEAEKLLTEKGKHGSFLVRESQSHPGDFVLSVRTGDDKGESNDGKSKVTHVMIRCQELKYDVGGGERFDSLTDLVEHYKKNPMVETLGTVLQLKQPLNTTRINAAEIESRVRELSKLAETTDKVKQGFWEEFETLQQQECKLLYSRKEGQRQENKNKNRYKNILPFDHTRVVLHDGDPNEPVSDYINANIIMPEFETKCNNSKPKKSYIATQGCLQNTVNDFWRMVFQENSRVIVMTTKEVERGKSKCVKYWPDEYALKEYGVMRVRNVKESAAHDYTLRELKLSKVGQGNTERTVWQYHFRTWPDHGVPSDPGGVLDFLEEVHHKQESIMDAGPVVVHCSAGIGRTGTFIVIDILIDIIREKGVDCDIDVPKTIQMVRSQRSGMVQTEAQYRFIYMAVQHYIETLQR

Work on `NCC1(F)CCN(c2cnc3nc(Sc4ccnc(N)c4Cl)ccc3n2)CC1` [Example 211, 4-((2-(4-(aminomethyl)-4-fluoropiperidin-1-yl)pyrido[2,3-b]pyrazin-6-yl)thio)-3-chloropyridin-2-amine] yielded a pIC50 of 7.27.
`C[C@@H]1OCC2(CCN(c3cnc4nc(Sc5cc(N)ncc5Cl)ccc4n3)CC2)[C@@H]1N` [Example 144, (3S,4S)-8-(6-((2-amino-5-chloropyridin-4-yl)thio)pyrido[2,3-b]pyrazin-2-yl)-3-methyl-2-oxa-8-azaspiro[4,5]decan-4-amine] showed a pIC50 of 7.05.
In the case of `C[C@@H]1OCC2(CCN(c3cnc4nc(Sc5ccnc(N)c5C(F)(F)F)ccc4n3)CC2)[C@@H]1N` [Example 136, (3S,4S)-8-(6-((2-amino-3-(trifluoromethyl)pyridin-4-yl)thio)pyrido[2,3-b]pyrazin-2-yl)-3-methyl-2-oxa-8-azaspiro[4.5]decan-4-amine], the pIC50 was 6.80.
Work on `COCCNc1nccc(Sc2ccc3nc(N4CCC(C)(N)CC4)cnc3n2)c1Cl` [Example 194, 4-((2-(4-amino-4-methylpiperidin-1-yl)pyrido[2,3-b]pyrazin-6-yl)thio)-3-chloro-N-(2-methoxyethyl)pyridin-2-amine] yielded a pIC50 of 6.62.
Molecule `Nc1nccc(Sc2ccc3nc(N4CC[C@@H](N)[C@@H](O)C4)cnc3n2)c1Cl` [Example 84, (3S,4R)-4-amino-1-(6-((2-amino-3-chloropyridin-4-yl)thio)pyrido[2,3-b]pyrazin-2-yl)piperidin-3-ol] has a pIC50 of 6.99.
Work on `NC1(CO)CCN(c2cnc3nc(Sc4cccc(Cl)c4Cl)ccc3n2)CC1` [Example 9, (4-amino-1-(6-((2,3-dichlorophenyl)thio)pyrido[2,3-b]pyrazin-2-yl)piperidin-4-yl)methanol] yielded a pIC50 of 7.21.
`C[C@@H]1OCC2(CCN(c3cnc4nc(Sc5ccnc(N6CC[C@H](O)C6)c5Cl)ccc4n3)CC2)[C@@H]1N` [Example 88, (S)-1-(4-((2-((3S,4S)-4-amino-3-methyl-2-oxa-8-azaspiro[4.5]decan-8-yl)pyrido[2,3-b]pyrazin-6-yl)thio)-3-chloropyridin-2-yl)pyrrolidin-3-ol] gave a pIC50 of 6.98.
Work on `COc1c(Sc2ccc3nc(N4CCC5(CC4)CO[C@@H](C)[C@H]5N)cnc3n2)ccnc1N` [Example 153, (3S,4S)-8-(6-((2-amino-3-methoxypyridin-4-yl)thio)pyrido[2,3-b]pyrazin-2-yl)-3-methyl-2-oxa-8-azaspiro [4.5] decan-4-amine] yielded a pIC50 of 6.79.
In the case of `CC1(N)CCN(c2ccc3nc(Sc4cccc(Cl)c4Cl)cnc3n2)CC1` [Example 7, 1-(2-((2,3-dichlorophenyl)thio)pyrido[2,3-b]pyrazin-6-yl)-4-methylpiperidin-4-amine], the pIC50 was 5.02.
`C[C@@]1(N)CCN(c2cnc3nc(-c4cccc(Cl)c4Cl)ccc3n2)C1` [Example 32, (R)-1-(6-(2,3-dichlorophenyl)pyrido[2,3-b]pyrazin-2-yl)-3-methylpyrrolidin-3-amine] was tested, and the pIC50 was 6.38.
Work on `CC1(N)CCN(c2cnc3nc(Sc4ccnc5ncccc45)ccc3n2)CC1` [Example 197, 1-(6-((1,8-naphthyridin-4-yl)thio)pyrido[2,3-b]pyrazin-2-yl)-4-methylpiperidin-4-amine] yielded a pIC50 of 5.82.
Work on `NCC1CC2CCCC(C1)N2c1cnc2nc(Sc3ccnc(N)c3Cl)ccc2n1` (stereo not shown) [Example 101, 4-((2-(3-(aminomethyl)-9-azabicyclo[3.3.1]nonan-9-yl)pyrido[2,3-b]pyrazin-6-yl)thio)-3-chloropyridin-2-amine] yielded a pIC50 of 7.25.
In the case of `Nc1nccc(Sc2ccc3nc(N4CC5(Cc6ccccc6[C@H]5N)C4)cnc3n2)c1Cl` [Example 124, (R)-1-(6-((2-amino-3-chloropyridin-4-yl)thio)pyrido[2,3-b]pyrazin-2-yl)-1′,3′-dihydrospiro[azetidine-3,2′-inden]-1′-amine], the pIC50 was 7.28.
Molecule `COCC1(N)CCN(c2cnc3nc(Sc4ccnc(N)c4Cl)ccc3n2)CC1` [Example 53, 4-((2-(4-amino-4-(methoxymethyl)piperidin-1-yl)pyrido[2,3-b]pyrazin-6-yl)thio)-3-chloropyridin-2-amine] has a pIC50 of 6.91.
With `Nc1nccc(Sc2ccc3nc(N4C[C@H]5C[C@H](N)[C@@H](C4)O5)cnc3n2)c1Cl` [Example 58, (1R,5R,6S)-3-(6-((2-amino-3-chloropyridin-4-yl)thio)pyrido[2,3-b]pyrazin-2-yl)-8-oxa-3-azabicyclo[3.2.1]octan-6-amine] the pIC50 was 6.82.
`Nc1nccc(Sc2ccc3nc(N4CC5CNCC(C4)O5)cnc3n2)c1Cl` [Example 206, 4-((2-(9-oxa-3,7-diazabicyclo[3.3.1]nonan-3-yl)pyrido[2,3-b]pyrazin-6-yl)thio)-3-chloropyridin-2-amine] gave a pIC50 of 5.69.
In the case of `C[C@@H]1OCC2(CCN(c3cnc4nc(N5CCNc6ccccc65)ccc4n3)CC2)[C@@H]1N` [Example 70, (3S,4S)-8-(6-(3,4-dihydroquinoxalin-1(2H)-yl)pyrido[2,3-b]pyrazin-2-yl)-3-methyl-2-oxa-8-azaspiro[4.5]decan-4-amine], the pIC50 was 5.22.
In the case of `C[C@@H]1OCC2(CCN(c3cnc4nc(Sc5ccnc(NC6CC6)c5Cl)ccc4n3)CC2)[C@@H]1N` [Example 184, (3S,4S)-8-(6-((3-chloro-2-(cyclopropylamino)pyridin-4-yl)thio)pyrido[2,3-b]pyrazin-2-yl)-3-methyl-2-oxa-8-azaspiro[4.5]decan-4-amine], the pIC50 was 6.38.
In the case of `CNc1nccc(Sc2ccc3nc(N4CCC[C@@](C)(N)CC4)cnc3n2)c1Cl` (single isomer, unassigned) [Example 148], the pIC50 was 7.03.
For `Nc1nccc(Sc2ccc3nc(N4C[C@H]5CC[C@@H](C4)[C@@H]5N)cnc3n2)c1Cl` [Example 199, (1R,5S,8s)-3-(6-((2-amino-3-chloropyridin-4-yl)thio)pyrido[2,3-b]pyrazin-2-yl)-3-azabicyclo[3.2.1]octan-8-amine], the pIC50 was 6.46.
`Nc1nccc(Sc2ccc3nc(N4CC5(Cc6ccccc6[C@@H]5N)C4)cnc3n2)c1Cl` [Example 164, (S)-1-(6-((2-amino-3-chloropyridin-4-yl)thio)pyrido[2,3-b]pyrazin-2-yl)-1′,3′-dihydrospiro[azetidine-3,2′-inden]-1′-amine] gave a pIC50 of 6.69.
`CC1(N)CCN(c2cnc3nc(Sc4cccn5nccc45)ccc3n2)CC1` [Example 36, 4-methyl-1-(6-(pyrazolo[1,5-a]pyridin-4-ylthio)pyrido[2,3-b]pyrazin-2-yl)piperidin-4-amine] showed a pIC50 [1] of 6.40.
`COCCNc1nccc(Sc2ccc3nc(N4CCC5(CC4)CO[C@@H](C)[C@H]5N)cnc3n2)c1Cl` [Example 183, (3S,4S)-8-(6-((3-chloro-2-((2-methoxyethyl)amino)pyridin-4-yl)thio)pyrido[2,3-b]pyrazin-2-yl)-3-methyl-2-oxa-8-azaspiro[4.5]decan-4-amine] showed a pIC50 of 6.57.
`CC1(N)CCN(c2cnc3nc(Nc4cccc(Cl)c4Cl)ccc3n2)CC1` [Example 17, 2-(4-amino-4-methylpiperidin-1-yl)-N-(2,3-dichlorophenyl)pyrido[2,3-b]pyrazin-6-amine] showed a pIC50 of 6.06.
`C[C@@H]1OCC2(CCN(c3cnc4nc(Sc5ccnc6c5ccn6C)ccc4n3)CC2)[C@@H]1N` [Example 191, (3S,4S)-3-methyl-8-(6-((1-methyl-1H-pyrrolo[2,3-b]pyridin-4-yl)thio)pyrido[2,3-b]pyrazin-2-yl)-2-oxa-8-azaspiro[4.5]decan-4-amine] was tested, and the pIC50 was 6.87.
Work on `C[C@@H]1C[C@H](N)CCN1c1cnc2nc(Sc3ccnc(N)c3Cl)ccc2n1` [Example 121, 4-((2-((2R,4R)-4-amino-2-methylpiperidin-1-yl)pyrido[2,3-h]pyrazin-6-yl)thio)-3-chloropyridin-2-amine] yielded a pIC50 of 7.00.
In the case of `Nc1nccc(Sc2ccc3nc(N4[C@H]5CC[C@H]4CC(N)C5)cnc3n2)c1Cl` (stereo partly drawn) [Example 52, (1R,3s,5S)-8-(6-((2-amino-3-chloropyridin-4-yl)thio)pyrido[2,3-b]pyrazin-2-yl)-8-azabicyclo[3.2.1]octan-3-amine], the pIC50 [1] was 7.15.
For `CN(C)C1C[C@@H]2CC[C@@H](C1)N2c1cnc2nc(Sc3ccnc(N)c3Cl)ccc2n1` (stereo partly drawn) [Example 92, (1R,3s,5S)-8-(6-((2-amino-3-chloropyridin-4-yl)thio)pyrido[2,3-b]pyrazin-2-yl)-N,N-dimethyl-8-azabicyclo[3.2.1]octan-3-amine], the pIC50 was 7.18.
For `CC1(N)CCN(c2cnc3nc(Cc4cccc(Cl)c4Cl)ccc3n2)CC1` [Example 10, 1-(6-(2,3-dichlorobenzyl)pyrido[2,3-b]pyrazin-2-yl)-4-methylpiperidin-4-amine], the pIC50 was 5.70.
For `COc1ccc(-c2ccc3nc(N4CCC(C)(N)CC4)cnc3n2)c(Cl)c1Cl` [Example 30, 1-(6-(2,3-dichloro-4-methoxyphenyl)pyrido[2,3-b]pyrazin-2-yl)-4-methylpiperidin-4-amine], the pIC50 was 6.38.
Molecule `C[C@@H]1OCC2(CCN(c3cnc4nc(Sc5cc(N)nc6[nH]ccc56)ccc4n3)CC2)[C@@H]1N` [Example 140, (3S,4S)-8-(6-((6-amino-1H-pyrrolo[2,3-b]pyridin-4-yl)thio)pyrido[2,3-b]pyrazin-2-yl)-3-methyl-2-oxa-8-azaspiro[4.5]decan-4-amine] has a pIC50 of 7.12.
For `NCC1CN(c2cnc3nc(Sc4cccc(Cl)c4Cl)ccc3n2)CCO1` (stereo not shown) [Example 63, (4-(6-((2,3-dichlorophenyl)thio)pyrido[2,3-b]pyrazin-2-yl)morpholin-2-yl)methanamine], the pIC50 was 6.55.
`Nc1nccc(Sc2ccc3nc(N4C5CNCC4C5)cnc3n2)c1Cl` [Example 205] was tested, and the pIC50 was 6.94.
`C[C@@H]1OCC2(CCN(c3cnc4nc(Sc5ccnc(N6CCS(=O)(=O)CC6)c5Cl)ccc4n3)CC2)[C@@H]1N` [Example 77, 4-(4-((2-((3S,4S)-4-amino-3-methyl-2-oxa-8-azaspiro[4.5]decan-8-yl)pyrido[2,3-b]pyrazin-6-yl)thio)-3-chloropyridin-2-yl)thiomorpholine 1,1-dioxide] showed a pIC50 of 6.46.
